pIC50: −log10 of the molar value. Values belong to the compound of their own block, whether it stands above or below them. Activity calls are given as the source filed them. The calls are words filed in the database; no cut-off is given here.
Legend:
[1] = Inhibition of HIF-1 (unknown origin) expressed in human HeLa cells after 12 hrs by HRE luciferase reporter gene assay; type: cell-based
[2] = test system: NCI-H226; test: Growth inhibition of human NCI-H226 cells by SRB assay; type: functional
[3] = Growth inhibition of human RXF631L cells by SRB assay; type: functional; conditions: for GI50: RXF 631
[4] = test system: Mus musculus; test: In vivo inhibition of HIF1 transcriptional activity in nude mouse xenografted with human SUIT2/HRE-luc cells at 10 mg/kg, ip measured after 24 hrs by bioluminescence assay; type: functional, organism-based; set-up: dose 10 mg/kg
[5] = Drug uptake in cytoplasm of human RXF631L cells azide-Alexa 488-based fluorescent microscopy; type: ADME
[6] = Drug uptake in granular vesicle of human MKN1 cells azide-Alexa 488-based fluorescent microscopy; type: ADME, cell-based; conditions: mkn-1
[7] = Drug uptake in nucleus of human RXF631L cells azide-Alexa 488-based fluorescent microscopy; type: ADME
[8] = Drug uptake in granular vesicle of human NCI-H226 cells azide-Alexa 488-based fluorescent microscopy; type: ADME, cell-based
[9] = Drug uptake in cytoplasm of human NCI-H226 cells azide-Alexa 488-based fluorescent microscopy; type: ADME, cell-based
[10] = Drug uptake in granular vesicle of human RXF631L cells azide-Alexa 488-based fluorescent microscopy; type: ADME
[11] = Drug uptake in nucleus of human NCI-H226 cells azide-Alexa 488-based fluorescent microscopy; type: ADME, cell-based
[12] = Growth inhibition of human HBC5 cells by SRB assay; type: functional
[13] = Growth inhibition of human DMS114 cells by SRB assay; type: functional; conditions: DMS-114
[14] = test system: ACHN; test: Growth inhibition of human ACHN cells by SRB assay; type: functional
[15] = test system: KM12; test: Growth inhibition of human KM12 cells by SRB assay; type: functional
[16] = Growth inhibition of human MKN74 cells by SRB assay; type: functional; conditions: MKN-74, read-out: pGI50 (converted)
[17] = Growth inhibition of human OVCAR5 cells by SRB assay; type: functional; conditions: OVCAR-5
[18] = Growth inhibition of human DMS273 cells by SRB assay; type: functional; conditions: DMS-273
[19] = test system: MDA-MB-231; test: Growth inhibition of human MDA-MB-231 cells by SRB assay; type: functional
[20] = Growth inhibition of human HBC4 cells by SRB assay; type: functional; conditions: HBC4, read-out: pGI50 (converted)
[21] = test system: A549; test: Growth inhibition of human A549 cells by SRB assay; type: functional
[22] = test system: NCI-H23; test: Growth inhibition of human NCI-H23 cells by SRB assay; type: functional; conditions: NCI-H23, read-out: pGI50 (converted)
[23] = test system: SF-268; test: Growth inhibition of human SF268 cells by SRB assay; type: functional; conditions: SF-268, read-out: pGI50 (converted)
[24] = test system: PC-3; test: Growth inhibition of human PC3 cells by SRB assay; type: functional
[25] = Growth inhibition of human BSY1 cells by SRB assay; type: functional; conditions: BSY-1
[26] = Growth inhibition of human SF539 cells by SRB assay; type: functional; conditions: SF-539, read-out: pGI50 (converted)
[27] = test system: HT-29; test: Growth inhibition of human HT-29 cells by SRB assay; type: functional; conditions: HT-29, read-out: pGI50 (converted)
[28] = Growth inhibition of human OVCAR8 cells by SRB assay; type: functional; conditions: OVCAR-8
[29] = test system: HCT-116; test: Growth inhibition of human HCT116 cells by SRB assay; type: functional
[30] = test system: Mus musculus; test: In vivo inhibition of HIF1 transcriptional activity in nude mouse xenografted with human SUIT2/HRE-luc cells at 10 mg/kg, ip measured after 12 hrs by bioluminescence assay; type: functional, organism-based; set-up: dose 10 mg/kg
[31] = Growth inhibition of human OVCAR4 cells by SRB assay; type: functional; conditions: OVCAR-4, read-out: pGI50 (converted)
[32] = Growth inhibition of human SF295 cells by SRB assay; type: functional; conditions: SF-295
[33] = Growth inhibition of human MKN45 cells by SRB assay; type: functional; conditions: MKN-45
[34] = Growth inhibition of human SNB78 cells by SRB assay; type: functional; conditions: SNB-78, read-out: pGI50 (converted)
[35] = test system: SNB-75; test: Growth inhibition of human SNB75 cells by SRB assay; type: functional; conditions: SNB-75, read-out: pGI50 (converted)
[36] = Growth inhibition of human HCC2998 cells by SRB assay; type: functional; conditions: HCC 2998, read-out: pGI50 (converted)
[37] = Growth inhibition of human MKN1 cells by SRB assay; type: functional; conditions: MKN-1, read-out: pGI50 (converted)
[38] = Growth inhibition of human MKN28 cells by SRB assay; type: functional; conditions: MKN-28
[39] = Growth inhibition of human MKN7 cells by SRB assay; type: functional; conditions: MKN-7
[40] = test system: U-251; test: Growth inhibition of human U251 cells by SRB assay; type: functional
[41] = Growth inhibition of human HCT15 cells by SRB assay; type: functional; conditions: HCT-15
[42] = test system: DU-145; test: Growth inhibition of human DU145 cells by SRB assay; type: functional; conditions: DU-145, read-out: pGI50 (converted)
[43] = test system: SK-OV-3; test: Growth inhibition of human SKOV3 cells by SRB assay; type: functional
[44] = Growth inhibition of human OVCAR3 cells by SRB assay; type: functional; conditions: OVCAR-3
[45] = test system: NCI-H522; test: Growth inhibition of human NCI-H522 cells by SRB assay; type: functional
[46] = test system: NCI-H460; test: Growth inhibition of human NCI-H460 cells by SRB assay; type: functional
[47] = test system: St-4; test: Growth inhibition of human St-4 cells by SRB assay; type: functional; conditions: St-4, read-out: pGI50 (converted)
[48] = Growth inhibition of human LOXIMVI cells by SRB assay; type: functional; conditions: LOX IMVI
[49] = test system: MCF7; test: Growth inhibition of human MCF7 cells by SRB assay; type: functional

pIC50 [1]: 6.59
Compound: OCc1ccc(-c2nn(Cc3ccccc3F)c3ccccc23)o1

pIC50 [1]: 5.05
Compound: O=Cc1ccc(-c2nn(Cc3ccccc3)c3ccccc23)o1

pIC50 [1]: 6.28
Compound: OCc1ccc(-c2nn(Cc3ccc(F)cc3)c3ccccc23)o1

pIC50 [1]: 6.74
Compound: OCc1ccc(-c2nn(Cc3c(F)c(F)c(F)c(F)c3F)c3ccccc23)o1

pIC50 [1]: 6.15
Compound: [N-]=[N+]=NCc1ccc(Cn2nc(-c3ccc(CO)o3)c3ccccc32)cc1

pIC50 [1]: 6.01
Compound: COc1ccc(Cn2nc(-c3ccc(CO)o3)c3ccccc32)cc1

pIC50 [1]: 5.91
Compound: [N-]=[N+]=Nc1ccc(Cn2nc(-c3ccc(CO)o3)c3ccccc32)cc1

pIC50 [1]: 6.08
Compound: OCc1ccc(-c2nn(Cc3ccncc3)c3ccccc23)o1

pIC50 [1]: 5.55
Compound: OCc1ccc(-c2nn(Cc3ccc(Cl)cc3)c3ccccc23)o1

Compound: OCc1ccc(-c2nn(Cc3ccccc3)c3ccccc23)o1
GI50 [2]: 0.224 µM
CC50 ([2]; read-out: pLC50 (the source's name) (converted)): 9.77 µM
TGI ([2]; read-out: pTGI (converted)): 0.661 µM
pIC50 [1]: 5.70
GI50 [3]: 0.158 µM
TGI ([3]; RXF 631, read-out: pTGI (converted)): 0.525 µM
inhibition [4]: inactive

pIC50 [1]: 6.19
Compound: OCc1ccc(-c2nn(Cc3ccccc3Cl)c3ccccc23)o1

pIC50 [1]: 5.15
Compound: C#CCOCc1ccc(-c2nn(Cc3ccccc3)c3ccccc23)o1

pIC50 [1]: 5.03
Compound: OCc1ccc(-c2nn(Cc3ccc(C(F)(F)F)cc3)c3ccccc23)o1

pIC50 [1]: 6.57
Compound: N#Cc1ccc(Cn2nc(-c3ccc(CO)o3)c3ccccc32)cc1

pIC50 [1]: 6.52
Compound: OCc1ccc(-c2nn(Cc3ccccn3)c3ccccc23)o1

pIC50 [1]: 5.48
Compound: OCc1ccc(-c2nn(Cc3ccc(-c4ccccc4)cc3)c3ccccc23)o1

pIC50 [1]: 6.51
Compound: OCc1ccc(-c2nn(Cc3ccc(F)cc3F)c3ccccc23)o1

pIC50 [1]: 7.15
Compound: OCc1ccc(-c2nn(Cc3c(F)c(F)cc(F)c3F)c3ccccc23)o1
inhibition [4]: inactive

pIC50 [1]: < 4.52
Compound: C#CC(O)c1ccc(-c2nn(Cc3ccccc3)c3ccccc23)o1 (centres undefined)

Drug uptake [5]: Active
Drug uptake [6]: Active
Drug uptake [7]: Active
Drug uptake [8]: Not Active
Drug uptake [9]: Active
pIC50 [1]: 6.21
Drug uptake [10]: Active
Drug uptake [11]: Active
Compound: C#CCNc1ccc(Cn2nc(-c3ccc(CO)o3)c3ccccc32)cc1

pIC50 [1]: 6.34
Compound: OCc1ccc(-c2nn(Cc3cccnc3)c3ccccc23)o1

pIC50 [1]: 6.32
Compound: OCc1ccc(-c2nn(Cc3cccc(F)c3)c3ccccc23)o1

pIC50 [1]: 4.86
Compound: OCc1ccc(-c2nn(Cc3ccccc3C(F)(F)F)c3ccccc23)o1

GI50 [14]: 74.1 µM
GI50 [19]: 25.1 µM
GI50 [2]: 0.0513 µM
GI50 [21]: 66.1 µM
GI50 [22]: > 100 µM
GI50 [24]: 43.7 µM
GI50 [27]: > 100 µM
GI50 [29]: 58.9 µM
pIC50 [1]: 7.00
GI50 [40]: 95.5 µM
GI50 [42]: > 100 µM
GI50 [43]: 53.7 µM
GI50 [45]: 17.8 µM
GI50 [46]: 41.7 µM
GI50 [49]: 38 µM
Compound: OCc1ccc(-c2nn(Cc3c(F)cccc3F)c3ccccc23)o1
GI50 [12]: 30.2 µM
GI50 [13]: 41.7 µM
GI50 [15]: 79.4 µM
GI50 [16]: > 100 µM
GI50 [17]: 72.4 µM
GI50 [18]: 50.1 µM
GI50 [20]: > 100 µM
GI50 [23]: > 100 µM
GI50 [25]: 29.5 µM
GI50 [26]: > 100 µM
GI50 [28]: 77.6 µM
inhibition [30]: Active
GI50 [31]: > 100 µM
GI50 [32]: 49 µM
GI50 [33]: 24 µM
GI50 [34]: > 100 µM
GI50 [35]: > 100 µM
GI50 [3]: 0.0447 µM
GI50 [36]: > 100 µM
GI50 [37]: > 100 µM
inhibition [4]: inactive
GI50 [38]: 51.3 µM
GI50 [39]: 36.3 µM
GI50 [41]: 41.7 µM
GI50 [44]: 75.9 µM
GI50 [47]: > 100 µM
GI50 [48]: 24.5 µM
